pIC50: −log10 of the molar value. Counter-ions that a name gives are not always drawn.

The target in one assay is T1, TIP48/TIP49 complex (Homo sapiens, UniProt Q9Y230+Q9Y265).
T1 construct: made in house; host or cells: E. coli
In words: ATPase assay of TIP48/TIP49 complex (ADP-Glo). As to conditions: concentration at which the ATPase activity was inhibited by 50%. Format: biochemical. The procedure, abridged: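 Recombinant human TIP48 and TIP49 expressed in E. coli (24.5 μg/mL final) were incubated 1.5 h at room temperature with compound (0.0007–200 μM, 2% DMSO) in Tris-HCl pH 7.5 buffer containing MgCl2 and ATP. ADP formed was detected by ADP-Glo luminescence; inhibition came from dose-response curves.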
For orientation: ADP-Glo first removes unused ATP, then detects ADP through luciferase.

Assay [1] deals with human lymphoma cell line RAMOS cells. Briefly: Cell growth inhibition test using RAMOS cell, ATP assay (CellTiter-Glo). As to conditions: Homo sapiens, Ramos, 72 h, cultured 3 days, 50% growth inhibition concentration. The format is cell-based. The procedure, abridged: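 RAMOS cells seeded at 4000 cells/well with compound and cultured 3 days at 37° C, 5% CO2; viability by CellTiter-Glo luminescence. Growth rate T/C % = 100×[(B−C)/(A−C)] using day-0 and final readings; GI50 interpolated from the two concentrations bracketing 50% growth.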
On the technique in general: Cellular ATP, detected with luciferase, serves as a proxy for viable cell number.

T1 sequence (Q9Y230 whole entry): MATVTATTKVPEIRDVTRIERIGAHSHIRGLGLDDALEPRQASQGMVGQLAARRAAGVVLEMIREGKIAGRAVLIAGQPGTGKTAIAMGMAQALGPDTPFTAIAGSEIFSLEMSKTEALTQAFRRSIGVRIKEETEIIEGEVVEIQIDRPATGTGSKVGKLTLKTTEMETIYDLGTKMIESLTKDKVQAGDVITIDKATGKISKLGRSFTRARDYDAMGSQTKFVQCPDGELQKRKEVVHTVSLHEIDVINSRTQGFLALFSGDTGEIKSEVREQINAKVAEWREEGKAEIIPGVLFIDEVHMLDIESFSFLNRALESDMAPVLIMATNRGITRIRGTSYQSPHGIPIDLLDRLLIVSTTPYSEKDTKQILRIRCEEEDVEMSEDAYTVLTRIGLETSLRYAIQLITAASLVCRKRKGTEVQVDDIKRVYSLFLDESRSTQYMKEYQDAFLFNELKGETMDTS
T1 sequence (Q9Y265 whole entry): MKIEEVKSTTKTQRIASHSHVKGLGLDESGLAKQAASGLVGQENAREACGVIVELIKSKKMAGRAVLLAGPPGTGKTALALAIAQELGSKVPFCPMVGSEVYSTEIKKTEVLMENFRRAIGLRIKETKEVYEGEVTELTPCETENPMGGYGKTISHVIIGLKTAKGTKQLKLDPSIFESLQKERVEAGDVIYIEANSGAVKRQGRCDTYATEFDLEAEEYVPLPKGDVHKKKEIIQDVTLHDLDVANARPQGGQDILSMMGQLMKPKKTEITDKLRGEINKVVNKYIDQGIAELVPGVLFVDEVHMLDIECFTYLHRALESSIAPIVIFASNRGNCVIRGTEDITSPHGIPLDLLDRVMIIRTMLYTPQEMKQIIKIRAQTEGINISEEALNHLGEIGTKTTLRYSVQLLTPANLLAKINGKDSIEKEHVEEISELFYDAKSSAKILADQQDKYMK

Broadly, the pIC50 is the negative decadic logarithm of the IC50, by convention in mol/L. Higher therefore signals a low IC50. In general, GI50 refers to the concentration at which growth is held to half of that of the control. On TIP48/TIP49 complex, `COCOc1cc(F)c(Cl)cc1C(=O)NCC(C)(C)CC(=O)Nc1c(COC)n(C)n(-c2ccccc2)c1=O` [Example 116, 5-Chloro-4-fluoro-2-(methoxymethoxy)-N-(4-{[5-(methoxymethyl)-1-methyl-3-oxo-2-phenyl-2,3-dihydro-1H-pyrazol-4-yl]amino}-2,2-dimethyl-4-oxobutyl)benzamide] had a pIC50 of 7.85. Moreover, the GI50 in assay [1] was 140 nM.
Consider `Cc1cc2cc(Cl)cc(C(=O)NCC(C)(C)CC(=O)Nc3c(CCCCN(C)C)n(C)n(-c4ccccc4)c3=O)c2o1` [Example 90, 5-Chloro-N-[4-({5-[4-(dimethylamino)butyl]-1-methyl-3-oxo-2-phenyl-2,3-dihydro-1H-pyrazol-4-yl}amino)-2,2-dimethyl-4-oxobutyl]-2-methylbenzofuran-7-carboxamide], for which, on TIP48/TIP49 complex, the pIC50 is 7.55. In assay [1], this molecule displayed a GI50 of 140 nM.
For `CCOc1ccc(Cl)cc1C(=O)NCC(C)(C)CC(=O)Nc1c(C[C@@H](C)N(C)C)n(C)n(-c2ccccc2)c1=O` [Example 48, 5-Chloro-N-[4-({5-[(2R)-2-(dimethylamino)propyl]-1-methyl-3-oxo-2-phenyl-2,3-dihydro-1H-pyrazol-4-yl}amino)-2,2-dimethyl-4-oxobutyl]-2-ethoxybenzamide], in that order: 7.21 and 160 nM.
For `CCOc1cc(F)c(Cl)cc1C(=O)NCC(C)(C)CC(=O)Nc1c([C@H](C)CN(C)C)n(C)n(-c2ccccc2)c1=O` [Example 70, 5-Chloro-N-[4-({5-[(1R)-2-(dimethylamino)-1-methylethyl]-1-methyl-3-oxo-2-phenyl-2,3-dihydro-1H-pyrazol-4-yl}amino)-2,2-dimethyl-4-oxobutyl]-2-ethoxy-4-fluorobenzamide], in that order: 7.08 and 160 nM.
At TIP48/TIP49 complex, `CCOc1ccc(Cl)cc1C(=O)NCC(C)(C)CC(=O)Nc1c(C(C)(C)CN(C)C)n(C)n(-c2ccccc2)c1=O` [Example 84, 5-Chloro-N-[4-({5-[2-(dimethylamino)-1,1-dimethylethyl]-1-methyl-3-oxo-2-phenyl-2,3-dihydro-1H-pyrazol-4-yl}amino)-2,2-dimethyl-4-oxobutyl]-2-ethoxybenzamide] had a pIC50 of 7.10. Also, the GI50 in assay [1] is 170 nM.
In turn, `CCOc1ccc(Cl)cc1C(=O)NCC(C)(C)CC(=O)Nc1c(CCCC(=O)N(C)C)n(C)n(-c2ccccc2)c1=O` [Example 129, 5-Chloro-N-[4-({5-[4-(dimethylamino)-4-oxobutyl]-1-methyl-3-oxo-2-phenyl-2,3-dihydro-1H-pyrazol-4-yl}amino)-2,2-dimethyl-4-oxobutyl]-2-ethoxybenzamide] gave a pIC50 against TIP48/TIP49 complex of 7.28. This molecule showed a GI50 in assay [1] of 190 nM.
Consider `CCOc1cc(F)c(Cl)cc1C(=O)NCC(C)(C)CC(=O)Nc1c(C)n(C)n(-c2ccccc2)c1=O` [Example 92, 5-Chloro-N-{4-[(1,5-dimethyl-3-oxo-2-phenyl-2,3-dihydro-1H-pyrazol-4-yl)amino]-2,2-dimethyl-4-oxobutyl}-2-ethoxy-4-fluorobenzamide], for which the pIC50 against TIP48/TIP49 complex was 7.59. For the same molecule, it took 560 nM to inhibit growth in assay [1] by half (GI50).
`CNCC(C)c1c(NC(=O)CC(C)(C)CNC(=O)c2cc(Cl)cc3cc(C)oc23)c(=O)n(-c2ccccc2)n1C` (stereo not drawn) [Example 78, 5-Chloro-N-[2,2-dimethyl-4-({1-methyl-5-[1-methyl-2-(methylamino)ethyl]-3-oxo-2-phenyl-2,3-dihydro-1H-pyrazol-4-yl}amino)-4-oxobutyl]-2-methylbenzofuran-7-carboxamide] showed a pIC50 on TIP48/TIP49 complex of 7.15. This molecule also had a GI50 in assay [1] of 480 nM.
`COCOc1ccc(Cl)cc1C(=O)NCC(C)(C)CC(=O)Nc1c(CCN(C)C)n(C)n(-c2ccccc2)c1=O` [Example 28, 5-Chloro-N-[4-({5-[2-(dimethylamino)ethyl]1-methyl-3-oxo-2-phenyl-2,3-dihydro-1H-pyrazol-4-yl}amino)-2,2-dimethyl-4-oxobutyl]-2-(methoxymethoxy)benzamide] showed a negative logarithm of the IC50 (pIC50) against TIP48/TIP49 complex of 7.32. For the same molecule, in assay [1], the GI50 came to 200 nM.
Consider `CCOc1ccc(Cl)cc1NC(=O)CC1(CC(=O)Nc2c(CCN(C)C)n(C)n(-c3ccccc3)c2=O)CCCC1` [Example 32, N-(5-chloro-2-ethoxyphenyl)-2-{1-[2-({5-[2-(dimethylamino)ethyl]-1-methyl-3-oxo-2-phenyl-2,3-dihydro-1H-pyrazol-4-yl}amino)-2-oxoethyl]cyclopentyl}acetamide], for which the pIC50 against TIP48/TIP49 complex is 6.89. The GI50 in assay [1] was found to be 1300 nM.
Molecule `CCOc1ccc(Cl)cc1C(=O)NCC(C)(C)CC(=O)Nc1c(CC(C)(C)NC)n(C)n(-c2ccccc2)c1=O` [Example 59, 5-Chloro-N-[2,2-dimethyl-4-({1-methyl-5-[2-methyl-2-(methylamino)propyl]-3-oxo-2-phenyl-2,3-dihydro-1H-pyrazol-4-yl}amino)-4-oxobutyl]-2-ethoxybenzamide] showed a pIC50 against TIP48/TIP49 complex of 7.47. The same molecule displayed a GI50 in assay [1] of 150 nM.
For `CCOc1ncc(Cl)cc1C(=O)NCC(C)(C)CC(=O)Nc1c(C(C)NC)n(C)n(-c2ccccc2)c1=O` (single isomer, unassigned) [Example 85, (+)-/(−)-5-Chloro-N-[2,2-dimethyl-4-({1-methyl-5-[1-(methylamino)ethyl]-3-oxo-2-phenyl-2,3-dihydro-1H-pyrazol-4-yl}amino)-4-oxobutyl]-2-ethoxypyridine-3-carboxamide], in that order: 6.96 and 300 nM.
On to `CCc1c(NC(=O)CC(C)(C)CNC(=O)c2cc(Cl)ccc2OCOC)c(=O)n(-c2ccccc2)n1C` [Example 127, 5-Chloro-N-{4-[(5-ethyl-1-methyl-3-oxo-2-phenyl-2,3-dihydro-1H-pyrazol-4-yl)amino]-2,2-dimethyl-4-oxobutyl}-2-(methoxymethoxy)benzamide], for which the pIC50 against TIP48/TIP49 complex was 7.26. In assay [1], this molecule yielded a GI50 of 130 nM.
For `CCOc1ncc(Cl)cc1C(=O)NCC(C)(C)CC(=O)Nc1c(C(C)CNC)n(C)n(-c2ccccc2)c1=O` (stereo not drawn) [Example 77, 5-Chloro-N-[2,2-dimethyl-4-({1-methyl-5-[1-methyl-2-(methylamino)ethyl]-3-oxo-2-phenyl-2,3-dihydro-1H-pyrazol-4-yl}amino)-4-oxobutyl]-2-ethoxypyridine-3-carboxamide], in that order: 7.04 and 800 nM.
On to `CCOc1ccc(Cl)cc1C(=O)NCC(C)(C)CC(=O)Nc1c([C@@H](C)CN(C)C)n(C)n(-c2ccccc2)c1=O` [Example 67, 5-Chloro-N-[4-({5-[(1S)-2-(dimethylamino)-1-methylethyl]-1-methyl-3-oxo-2-phenyl-2,3-dihydro-1H-pyrazol-4-yl}amino)-2,2-dimethyl-4-oxobutyl]-2-ethoxybenzamide], for which the pIC50 on TIP48/TIP49 complex was 7.44. The concentration for 50% growth inhibition (GI50) in assay [1] was determined as 150 nM.
Take `CCOc1ccc(Cl)cc1C(=O)NCC(C)(C)CC(=O)Nc1c(CCN(C)C)n(C)n(-c2ccccc2F)c1=O` [Example 45, 5-Chloro-N-[4-({3-[2-(dimethylamino)ethyl]-1-(2-fluorophenyl)-2-methyl-5-oxopyrazol-4-yl}amino)-2,2-dimethyl-4-oxobutyl]-2-ethoxybenzamide]: the negative-log IC50 (pIC50) against TIP48/TIP49 complex is 7.11. The molecule also gave a GI50 in assay [1] of 480 nM.
At TIP48/TIP49 complex, `CCOc1cc(F)c(Cl)cc1C(=O)NCC(C)(C)CC(=O)Nc1c(CCCN(C)C)n(C)n(-c2ccccc2)c1=O` [Example 64, 5-Chloro-N-[4-({5-[3-(dimethylamino)propyl]-1-methyl-3-oxo-2-phenyl-2,3-dihydro-1H-pyrazol-4-yl}amino)-2,2-dimethyl-4-oxobutyl]-2-ethoxy-4-fluorobenzamide monohydrochloride] showed a pIC50 of 7.00. In assay [1], this molecule yielded a GI50 of 190 nM.
Turning to `CCOc1ncc(Cl)cc1C(=O)NCC(C)(C)CC(=O)Nc1c(C(C)NC)n(C)n(-c2ccccc2)c1=O` (stereo not drawn) [Example 2, 5-Chloro-N-[2,2-dimethyl-4-({1-methyl-5-[1-(methylamino)ethyl]-3-oxo-2-phenyl-2,3-dihydro-1H-pyrazol-4-yl}amino)-4-oxobutyl]-2-ethoxypyridine-3-carboxamide], at TIP48/TIP49 complex, the pIC50 was 6.80. This molecule also returned a GI50 in assay [1] of 250 nM.
For `CCOc1cc(F)c(Cl)cc1C(=O)NCC(C)(C)CC(=O)Nc1c([C@@H](C)OC)n(C)n(-c2ccccc2)c1=O` [Example 124, 5-Chloro-2-ethoxy-4-fluoro-N-(4-{[5-((1R)-1-methoxyethyl)-1-methyl-3-oxo-2-phenyl-2,3-dihydro-1H-pyrazol-4-yl]amino}-2,2-dimethyl-4-oxobutyl)benzamide] the same measures were 7.42 and 140 nM.
For `CCOc1ccc(Cl)cc1C(=O)NCC(C)(C)CC(=O)Nc1c(C(C)CN(C)C)n(C)n(-c2ccccc2)c1=O` (stereo not drawn) [Example 66, 5-Chloro-N-[4-({5-[2-(dimethylamino)-1-methylethyl]-1-methyl-3-oxo-2-phenyl-2,3-dihydro-1H-pyrazol-4-yl}amino)-2,2-dimethyl-4-oxobutyl]-2-ethoxybenzamide] the same measures were 7.24 and 160 nM.
For `CNC(C)(C)Cc1c(NC(=O)CC(C)(C)CNC(=O)c2cc(Cl)cc3cc(C)oc23)c(=O)n(-c2ccccc2)n1C` [Example 61, 5-Chloro-N-[2,2-dimethyl-4-({1-methyl-5-[2-methyl-2-(methylamino)propyl]-3-oxo-2-phenyl-2,3-dihydro-1H-pyrazol-4-yl}amino)-4-oxobutyl]-2-methylbenzofuran-7-carboxamide], in that order: 7.28 and 390 nM.
